Results from patent US10934300B2, “Atropisomerism for enhanced kinase inhibitor selectivity” (San Diego State University Foundation, priority 2017, dated 2021).
pIC50: −log10 of the molar value. “And” between values parts separate entries of the source, which are not always exact repeats. Equal entries are not always repeated.

Columns and labels:
[1] = test system: panel of tyrosine kinases; assay: Kinase inhibitor profiling across a panel of tyrosine kinases, selectivity score; format: biochemical; conditions: for Inhibited % (n/18) of tyrosine kinases: share of the 18 tyrosine kinases inhibited, concentration not printed in Table 3
Procedure: To analyze each analog's selectivity across the panel, selectivity scores were used (Davis et al., Nat. Biotechnol. 2011, 29, 1046-51), which are simply the number of kinases inhibited above a certain threshold divided by the number of kinases evaluated. […] For example at 1000 nM 2e-(R) yielded an S(40%) of 0.11 while 2e-(S) gave an S(40%) of 0.16. […] Differences in selectivity between 2e-(R) and 2e-(S) at 5000 nM (4.5 times the IC50 of 2e-(S) toward Src) and for 5 at 1000 nM (6.25 times the IC50 of 5 toward Src) can be viewed graphically across tyrosine kinases (FIG. 3). Importantly, similar trends were also observed across each of the atropisomeric series tested.
All samples were sent out to Life Technologies to obtain kinase inhibition data. A brief description of the assays and analyses are included below.
Assay Theory (SelectScreen® Kinase Profiling Services (Life Technologies, Madison, Wis. USA). The Z′-LYTE® biochemical assay employs a fluorescence-based, coupled-enzyme format and is based on the differential sensitivity of phosphorylated and non-phosphorylated peptides to proteolytic cleavage. The peptide substrate is labeled with two fluorophores—one at each end—that make up a FRET pair.
In the primary reaction, the kinase transfers the gamma-phosphate of ATP to a single tyrosine, serine or threonine residue in a synthetic FRET-peptide. In the secondary reaction, a site-specific protease recognizes and cleaves non-phosphorylated FRET-peptides. Phosphorylation of FRET-peptides suppresses cleavage by the Development Reagent. Cleavage disrupts FRET between the donor (i.e., coumarin) and acceptor (i.e., fluorescein) fluorophores on the FRET-peptide, whereas uncleaved, phosphorylated FRET-peptides maintain FRET. A ratiometric method, which calculates the ratio (the Emission Ratio) of donor emission to acceptor emission after excitation of the donor fluorophore at 400 nm, is used to quantitate reaction progress, as shown in the equation below: […]
A significant benefit of this ratiometric method for quantitating reaction progress is the elimination of well-to-well variations in FRET-peptide concentration and signal intensities. […] Both cleaved and uncleaved FRET-peptides contribute to the fluorescence signals and therefore to the Emission Ratio. The extent of phosphorylation of the FRET-peptide can be calculated from the Emission Ratio. The Emission Ratio will remain low 1f the FRET-peptide is phosphorylated (i.e., no kinase inhibition) and will be high if the FRET-peptide is non-phosphorylated (i.e., kinase inhibition).
Both cleaved and uncleaved FRET-peptides contribute to the fluorescence signals and therefore to the Emission Ratio. The extent of phosphorylation of the FRET-peptide can be calculated from the Emission Ratio. The Emission Ratio will remain low if the FRET-peptide is phosphorylated (i.e., no kinase inhibition) and will be high if the FRET-peptide is non-phosphorylated (i.e., kinase inhibition).

Abl = Abl (Homo sapiens, UniProt P00519); assay: Z'-LYTE kinase inhibition, Abl; conditions: for IC50 of compound Kinase/IC50 of compound Yes: Abl relative to Yes
Chain of Abl (P00519 whole entry): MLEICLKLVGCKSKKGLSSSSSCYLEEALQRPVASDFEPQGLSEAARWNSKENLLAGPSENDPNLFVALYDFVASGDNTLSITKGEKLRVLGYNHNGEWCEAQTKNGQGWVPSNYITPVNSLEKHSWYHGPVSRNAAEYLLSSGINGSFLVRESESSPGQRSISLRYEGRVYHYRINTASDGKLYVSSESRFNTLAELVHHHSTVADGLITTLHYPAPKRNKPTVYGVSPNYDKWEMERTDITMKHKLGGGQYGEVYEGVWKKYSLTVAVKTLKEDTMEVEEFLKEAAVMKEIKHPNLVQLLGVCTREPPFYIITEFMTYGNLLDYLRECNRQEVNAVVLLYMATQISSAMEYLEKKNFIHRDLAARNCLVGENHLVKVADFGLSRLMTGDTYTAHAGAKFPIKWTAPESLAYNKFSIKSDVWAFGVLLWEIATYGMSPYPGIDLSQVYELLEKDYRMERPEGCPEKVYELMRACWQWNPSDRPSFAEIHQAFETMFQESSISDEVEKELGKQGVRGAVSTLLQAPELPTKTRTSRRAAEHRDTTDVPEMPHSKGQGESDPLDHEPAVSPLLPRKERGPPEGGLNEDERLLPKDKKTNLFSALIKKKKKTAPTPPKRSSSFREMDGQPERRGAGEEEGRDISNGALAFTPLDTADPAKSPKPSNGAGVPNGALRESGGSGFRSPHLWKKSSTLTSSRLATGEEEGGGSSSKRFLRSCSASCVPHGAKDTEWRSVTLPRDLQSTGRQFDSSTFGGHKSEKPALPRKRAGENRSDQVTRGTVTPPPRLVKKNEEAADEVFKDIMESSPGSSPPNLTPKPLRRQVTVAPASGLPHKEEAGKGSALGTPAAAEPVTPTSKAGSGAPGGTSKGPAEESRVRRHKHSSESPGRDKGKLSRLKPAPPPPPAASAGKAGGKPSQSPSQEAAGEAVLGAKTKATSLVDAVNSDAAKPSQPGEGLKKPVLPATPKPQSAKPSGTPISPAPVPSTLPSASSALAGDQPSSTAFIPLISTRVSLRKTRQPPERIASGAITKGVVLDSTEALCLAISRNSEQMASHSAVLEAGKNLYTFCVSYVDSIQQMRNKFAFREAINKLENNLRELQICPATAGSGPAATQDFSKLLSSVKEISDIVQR

Ret kinase = Ret kinase (Homo sapiens, UniProt P07949); assay: Z'-LYTE kinase inhibition, Ret; conditions: for IC50 of compound Kinase/IC50 of compound Yes: Ret relative to Yes; for augmentation/increase of 5's inherent selectivity: Ret versus Abl and Src
Chain of Ret kinase (P07949 29-1114): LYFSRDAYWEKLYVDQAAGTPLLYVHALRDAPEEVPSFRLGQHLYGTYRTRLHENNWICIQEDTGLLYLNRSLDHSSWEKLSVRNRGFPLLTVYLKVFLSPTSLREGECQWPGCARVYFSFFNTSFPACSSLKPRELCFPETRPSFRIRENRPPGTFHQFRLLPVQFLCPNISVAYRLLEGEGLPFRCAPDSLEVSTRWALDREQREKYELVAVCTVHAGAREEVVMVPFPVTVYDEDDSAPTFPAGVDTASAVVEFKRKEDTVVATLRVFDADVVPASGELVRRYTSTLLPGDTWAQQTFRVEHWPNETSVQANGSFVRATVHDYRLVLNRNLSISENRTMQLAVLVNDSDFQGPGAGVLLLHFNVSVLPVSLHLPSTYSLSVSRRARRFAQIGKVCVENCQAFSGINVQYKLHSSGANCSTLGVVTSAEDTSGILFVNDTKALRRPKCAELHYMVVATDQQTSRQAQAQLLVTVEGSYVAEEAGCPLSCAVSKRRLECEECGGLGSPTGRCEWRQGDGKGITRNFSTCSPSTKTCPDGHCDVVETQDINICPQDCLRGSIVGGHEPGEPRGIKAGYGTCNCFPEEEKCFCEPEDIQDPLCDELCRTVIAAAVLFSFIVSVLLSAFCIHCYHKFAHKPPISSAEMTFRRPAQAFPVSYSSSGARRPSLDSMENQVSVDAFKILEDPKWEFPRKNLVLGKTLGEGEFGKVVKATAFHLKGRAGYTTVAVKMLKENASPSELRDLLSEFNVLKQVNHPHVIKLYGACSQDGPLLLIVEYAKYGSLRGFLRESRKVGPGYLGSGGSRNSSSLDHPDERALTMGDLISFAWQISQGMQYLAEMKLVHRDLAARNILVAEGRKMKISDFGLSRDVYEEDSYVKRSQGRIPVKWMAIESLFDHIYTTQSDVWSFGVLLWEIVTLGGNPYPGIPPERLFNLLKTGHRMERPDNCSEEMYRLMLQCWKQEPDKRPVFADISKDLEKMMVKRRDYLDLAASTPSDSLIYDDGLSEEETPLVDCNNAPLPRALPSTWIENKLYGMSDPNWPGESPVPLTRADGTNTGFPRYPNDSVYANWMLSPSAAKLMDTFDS

Yes = Yes (Homo sapiens, UniProt P07947); assay: Z'-LYTE kinase inhibition, Yes; conditions: for IC50 of compound Kinase/IC50 of compound Yes: Yes relative to Yes
Chain of Yes (P07947 whole entry): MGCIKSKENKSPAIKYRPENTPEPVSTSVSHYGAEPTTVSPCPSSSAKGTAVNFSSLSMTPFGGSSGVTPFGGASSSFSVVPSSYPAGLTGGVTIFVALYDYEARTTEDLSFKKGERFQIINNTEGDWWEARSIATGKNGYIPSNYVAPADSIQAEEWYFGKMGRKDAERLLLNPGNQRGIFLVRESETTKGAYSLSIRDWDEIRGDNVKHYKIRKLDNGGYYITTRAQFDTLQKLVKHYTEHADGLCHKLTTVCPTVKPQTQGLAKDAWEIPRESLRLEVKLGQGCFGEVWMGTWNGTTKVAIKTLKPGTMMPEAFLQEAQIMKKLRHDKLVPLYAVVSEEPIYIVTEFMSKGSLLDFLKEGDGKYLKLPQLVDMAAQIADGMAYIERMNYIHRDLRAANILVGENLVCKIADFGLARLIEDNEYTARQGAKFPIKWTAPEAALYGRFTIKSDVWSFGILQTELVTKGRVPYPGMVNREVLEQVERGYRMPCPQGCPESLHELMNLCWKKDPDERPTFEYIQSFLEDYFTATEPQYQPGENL

Src kinase = Src kinase (Homo sapiens, UniProt P12931); assay: Z'-LYTE kinase inhibition, Src; conditions: Src relative to Yes
Chain of Src kinase (P12931 whole entry): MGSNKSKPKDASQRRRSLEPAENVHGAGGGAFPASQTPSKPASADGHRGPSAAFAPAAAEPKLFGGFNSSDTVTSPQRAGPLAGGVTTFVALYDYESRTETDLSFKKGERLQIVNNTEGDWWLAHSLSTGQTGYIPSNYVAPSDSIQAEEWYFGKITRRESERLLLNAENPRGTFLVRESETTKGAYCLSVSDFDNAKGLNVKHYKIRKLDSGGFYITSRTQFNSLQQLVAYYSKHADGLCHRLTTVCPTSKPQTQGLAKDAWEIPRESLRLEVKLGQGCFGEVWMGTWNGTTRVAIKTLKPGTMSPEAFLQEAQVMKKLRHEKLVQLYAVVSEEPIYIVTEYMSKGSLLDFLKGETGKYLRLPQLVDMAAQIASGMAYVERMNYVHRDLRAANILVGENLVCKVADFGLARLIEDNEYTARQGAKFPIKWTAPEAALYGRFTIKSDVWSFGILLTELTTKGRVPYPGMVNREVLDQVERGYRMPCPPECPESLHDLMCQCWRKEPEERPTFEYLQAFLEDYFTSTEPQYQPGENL

EGFR = EGFR (Homo sapiens, UniProt P00533); assay: Z'-LYTE kinase inhibition, EGFR; conditions: EGFR relative to Yes
Chain of EGFR (P00533 25-1210): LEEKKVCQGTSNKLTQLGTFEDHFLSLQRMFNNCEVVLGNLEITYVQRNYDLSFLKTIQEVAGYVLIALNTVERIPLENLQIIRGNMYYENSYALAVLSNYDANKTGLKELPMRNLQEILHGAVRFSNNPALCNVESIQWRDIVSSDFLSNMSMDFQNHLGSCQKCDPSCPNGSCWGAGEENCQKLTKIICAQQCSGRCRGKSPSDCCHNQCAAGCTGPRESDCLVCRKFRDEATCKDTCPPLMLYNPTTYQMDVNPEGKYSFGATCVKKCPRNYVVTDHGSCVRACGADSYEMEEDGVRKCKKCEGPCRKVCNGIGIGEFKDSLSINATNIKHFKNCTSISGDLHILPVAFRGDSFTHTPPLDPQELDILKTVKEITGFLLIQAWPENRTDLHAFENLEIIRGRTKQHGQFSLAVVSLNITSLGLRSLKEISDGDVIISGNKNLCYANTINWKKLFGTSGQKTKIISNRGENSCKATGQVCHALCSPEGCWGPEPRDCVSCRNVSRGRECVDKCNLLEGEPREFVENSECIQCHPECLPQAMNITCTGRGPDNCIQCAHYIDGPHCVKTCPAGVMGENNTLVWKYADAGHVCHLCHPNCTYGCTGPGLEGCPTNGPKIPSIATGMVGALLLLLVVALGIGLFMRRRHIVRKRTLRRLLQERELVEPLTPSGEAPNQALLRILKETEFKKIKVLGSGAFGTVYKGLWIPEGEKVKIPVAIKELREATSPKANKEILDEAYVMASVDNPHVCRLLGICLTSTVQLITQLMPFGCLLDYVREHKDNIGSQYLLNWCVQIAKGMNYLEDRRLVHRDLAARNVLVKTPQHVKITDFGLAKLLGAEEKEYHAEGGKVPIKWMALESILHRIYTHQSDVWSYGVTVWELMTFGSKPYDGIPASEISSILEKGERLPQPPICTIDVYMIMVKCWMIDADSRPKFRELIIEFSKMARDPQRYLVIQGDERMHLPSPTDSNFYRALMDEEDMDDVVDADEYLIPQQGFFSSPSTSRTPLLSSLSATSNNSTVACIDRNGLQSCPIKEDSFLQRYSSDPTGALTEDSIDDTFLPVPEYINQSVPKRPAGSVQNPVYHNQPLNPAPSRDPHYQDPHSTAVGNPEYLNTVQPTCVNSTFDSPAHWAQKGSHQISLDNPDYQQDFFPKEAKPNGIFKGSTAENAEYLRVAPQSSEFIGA

Alk = Alk (Homo sapiens, UniProt Q9UM73); assay: Z'-LYTE kinase inhibition, Alk
Blk = Blk (Homo sapiens, UniProt P51451); assay: Z'-LYTE kinase inhibition, Blk
BTK = BTK (Homo sapiens, UniProt Q06187); assay: Z'-LYTE kinase inhibition, BTK
CSK = CSK (Homo sapiens, UniProt P41240); assay: Z'-LYTE kinase inhibition, CSK
Fgr = Fgr (Homo sapiens, UniProt P09769); assay: Z'-LYTE kinase inhibition, Fgr
Chain of Fgr (P09769 whole entry): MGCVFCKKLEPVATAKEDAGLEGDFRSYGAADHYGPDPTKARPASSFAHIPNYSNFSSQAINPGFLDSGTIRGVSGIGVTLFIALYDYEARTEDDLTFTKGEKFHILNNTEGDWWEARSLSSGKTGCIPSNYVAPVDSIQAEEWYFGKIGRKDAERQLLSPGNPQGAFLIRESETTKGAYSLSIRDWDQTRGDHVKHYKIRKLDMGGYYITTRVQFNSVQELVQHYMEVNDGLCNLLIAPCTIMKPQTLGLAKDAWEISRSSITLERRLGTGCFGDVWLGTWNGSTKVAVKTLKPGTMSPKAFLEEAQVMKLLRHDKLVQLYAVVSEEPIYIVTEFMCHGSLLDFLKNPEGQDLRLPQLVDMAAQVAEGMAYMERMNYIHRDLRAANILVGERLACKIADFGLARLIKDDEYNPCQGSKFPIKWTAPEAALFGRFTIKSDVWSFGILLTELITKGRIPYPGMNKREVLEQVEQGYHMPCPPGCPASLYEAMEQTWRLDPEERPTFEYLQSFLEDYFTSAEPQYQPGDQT

Fyn = Fyn (Homo sapiens, UniProt P06241); assay: Z'-LYTE kinase inhibition, Fyn
Hck = Hck (Homo sapiens, UniProt P08631); assay: Z'-LYTE kinase inhibition, Hck
Kit = Kit (Homo sapiens, UniProt P10721); assay: Z'-LYTE kinase inhibition, Kit
Lck = Lck (Homo sapiens, UniProt P06239); assay: Z'-LYTE kinase inhibition, Lck
Lyn = Lyn (Homo sapiens, UniProt P07948); assay: Z'-LYTE kinase inhibition, Lyn
pdgfr-a = pdgfr-a (Homo sapiens, UniProt P16234); assay: Z'-LYTE kinase inhibition, pdgfr-a
pdgfr-b = pdgfr-b (Homo sapiens, UniProt P09619); assay: Z'-LYTE kinase inhibition, pdgfr-b

Row | SMILES | S(40%): number of kinases inhibited greater than 40% divided by number of kinases tested (including Src) ([1]; 1000 nM) | S(40%): number of kinases inhibited greater than 40% divided by number of kinases tested (including Src) ([1]; 5000 nM) | Inhibited % (n/18) of tyrosine kinases [1] | IC50 of compound Kinase/IC50 of compound Yes (Abl) | IC50 of compound Kinase/IC50 of compound Yes (Ret kinase) | IC50 of compound Kinase/IC50 of compound Yes (Yes) | IC50 of compound Kinase/IC50 of compound Yes (Src kinase) | IC50 of compound Kinase/IC50 of compound Yes (EGFR) | further results
1 | COc1ccc(Cl)c(-c2c(Cl)n(C(C)(C)C)c3ncnc(N)c23)c1 (single isomer, unassigned) [2e-(R), 7-(tert-butyl)-6-chloro-5-(2-chloro-5-methoxyphenyl)-7H-pyrrolo[2,3-d]pyrimidin-4-amine] | 0.11 | 0.44 | (R): Inhibited 11% (2/18) | 10.0 | 2.07 | 1 | 6.22 | >10.0 | pIC50 (Abl): ≤ 5.00; augmentation/increase of 5's inherent selectivity (Ret kinase): 4 fold
2 | COc1ccc(Cl)c(-c2c(Cl)n(C(C)(C)C)c3ncnc(N)c23)c1 (single isomer, unassigned) [2e-(S), 7-(tert-butyl)-6-chloro-5-(2-chloro-5-methoxyphenyl)-7H-pyrrolo[2,3-d]pyrimidin-4-amine] | 0.16 | 0.61 | (S): Inhibited 16% (3/18) | 1.96 | 10.53 | 1 | 1.64 | >10.0 | S/R (5000 nM): % inhibition 2e-(S) / % inhibition 2e-(R) (Abl; Abl, 5000 nM): 2.57; S/R (5000 nM): % inhibition 2e-(S) / % inhibition 2e-(R) (Alk): 0.38; S/R (5000 nM): % inhibition 2e-(S) / % inhibition 2e-(R) (Blk): 1.46; S/R (5000 nM): % inhibition 2e-(S) / % inhibition 2e-(R) (BTK): 1.86; S/R (5000 nM): % inhibition 2e-(S) / % inhibition 2e-(R) (CSK): 1.28; S/R (5000 nM): % inhibition 2e-(S) / % inhibition 2e-(R) (Fgr): 1.05; S/R (5000 nM): % inhibition 2e-(S) / % inhibition 2e-(R) (Fyn): 1.27; S/R (5000 nM): % inhibition 2e-(S) / % inhibition 2e-(R) (Hck): 1.25; S/R (5000 nM): % inhibition 2e-(S) / % inhibition 2e-(R) (Kit): 1.38; S/R (5000 nM): % inhibition 2e-(S) / % inhibition 2e-(R) (Lck): 1.05; S/R (5000 nM): % inhibition 2e-(S) / % inhibition 2e-(R) (Lyn): 1.31; augmentation/increase of 5's inherent selectivity (Ret kinase; listed as 2e-(5)): ~8 fold; S/R (5000 nM): % inhibition 2e-(S) / % inhibition 2e-(R) (Ret kinase; Ret, 5000 nM): 0.44; S/R (5000 nM): % inhibition 2e-(S) / % inhibition 2e-(R) (Yes; Yes, 5000 nM): 0.97; S/R (5000 nM): % inhibition 2e-(S) / % inhibition 2e-(R) (pdgfr-a): 1.63; S/R (5000 nM): % inhibition 2e-(S) / % inhibition 2e-(R) (pdgfr-b): 1.23
3 | COc1cccc(-c2cn(C(C)(C)C)c3ncnc(N)c23)c1 [Compound 5, reference compound] | 0.72 |  |  | 2.65 | 1.4 | 1 | 1.64 | 7 and 6.96 | S(40%): number of kinases inhibited greater than 40% divided by number of kinases tested (including Src) ([1]; 200 nM): 0.44; activity for the tyrosine kinase panel tested ([1]; 200 nM and 1000 nM): near pan activity; relative selectivities favoring Yes (IC50 kinase/IC50 YES) over Ret, Src, and Abl (Yes): 1.4-2.65 fold
